# From patent US8188059B2, “Compounds and methods for modulating expression of GCGR” (Isis Pharmaceuticals, Inc., priority 2006, dated 2012)
# Strand notation (5' to 3'): a small letter for the sugar, then the base; units joined by * are phosphorothioate-linked, units joined directly phosphodiester-linked; [ ] holds rarer units or linkages, { } end groups; capitals alone tell only the bases. [PALM-N] = nucleoside bearing a 2'-(butylacetamido)-palmitamide (C16 palmitic acid) substituent (N: the base); e = 2'-O-(2-methoxyethyl) (MOE); l = locked nucleic acid (LNA); [5mC] = 5-methylcytosine; d = 2'-deoxy (DNA)
# Tests used:
# [1] = Triglyceride, total cholesterol, HDL, LDL, free fatty acid and glucose levels (Example 3, Table 28); type: in vivo, mouse; parameters: Free Fatty Acid (FFA): unit not given here; conditions: Balb/c mice, 2.4 μmol/kg i.p. twice per week for three weeks
# Protocol: (§1) Antisense compound doses included 2.4, 1.2, 0.6, 0.3 and 0.15 μmol/kg. For antisense compounds 14 nucleotides in length, these doses equate to approximately 12, 6, 3, 1.5 or 0.75 mg/kg, respectively. Shown in Table 25 are the sequences and motifs of the antisense compounds used in this study. […] Bolded residues indicate 2′-O-methoxyethyl moieties and italicized residues indicate methyleneoxy (4′-CH2—O-2′) BNAs. The internucleoside linkages of each compound are phosphorothioate throughout. All cytosine residues of ISIS 147764 and ISIS 372938 are replaced by 5-methyl cytosines. For ISIS 387462, only the cytosine residue in the wing of the compound is replaced by 5-methyl cytosine. ApoB antisense compounds are targeted to publicly available ApoB-100 sequences, including Genbank Accession No. XM—137955.5 (SEQ ID NO: 2).
# (§2) Forty-eight hours following the final injection, mice were sacrificed to evaluate transaminases (Table 26); liver and kidney weight (Table 27); triglyceride, LDL, HDL and free fatty acid levels (Table 28); target mRNA level in liver (Table 29); target protein level in plasma; and oligonucleotide tissue concentration (Table 30). These endpoints were determined using methods described herein and well known to those of ordinary skill in the art.
# Glucose levels also were similar among all treatment groups.
# [2] = Full-length and total antisense compound tissue concentration in liver and kidney (Example 3, Table 30); type: in vivo, mouse; conditions: Balb/c mice, 2.4 μmol/kg i.p. twice per week for three weeks
# Protocol: as §1, §2
# To determine whether the observed increase in efficiency with the methyleneoxy (4′-CH2—O-2′) BNA gapmer is due to an increase in oligonucleotide accumulation, full-length and total oligonucleotide concentration in the liver and kidney were determined.
# [3] = Liver and kidney weight, total body weight and food consumption (Example 3, Table 27); type: in vivo, mouse; conditions: Balb/c mice, 2.4 μmol/kg i.p. twice per week for three weeks
# Protocol: as §1, §2
# [4] = ALT and AST levels, Balb/c mice (Example 3, Table 26); type: in vivo, mouse; conditions: 2.4 μmol/kg i.p. twice per week for three weeks, 48 h after final injection
# Protocol: as §1, §2
# ApoB mRNA [5] = experiment: ApoB mRNA level in liver of Balb/c mice, i.p. twice per week for three weeks (Example 3, Table 29); type: in vivo, mouse; conditions: 2.4 μmol/kg i.p. twice per week for three weeks
# Protocol: Prior to quantitative PCR analysis, primer-probe sets specific to the target gene being measured were evaluated for their ability to be “multiplexed” with a GAPDH amplification reaction. After isolation the RNA is subjected to sequential reverse transcriptase (RT) reaction and real-time PCR, both of which are performed in the same well. RT and PCR reagents were obtained from Invitrogen Life Technologies (Carlsbad, Calif.). […] The RT reaction was carried out by incubation for 30 minutes at 48° C. Following a 10 minute incubation at 95° C. to activate the […]® Taq, 40 cycles of a two-step PCR protocol were carried out: 95° C. for 15 seconds (denaturation) followed by 60° C. for 1.5 minutes (annealing/extension).
# as §1, §2
# [6] = Plasma glucose in ZDF rats, once a week for twelve weeks (Example 16, Table 71); type: in vivo, rat
# Protocol: (§3) ISIS 388625, 388626 and control oligo ISIS 388628 were analyzed for their effect on ZDF rat plasma glucose levels and HbA1c. The leptin receptor deficient Zucker diabetic fatty (ZDF) rat is a useful model for the investigation of type 2 diabetes. Diabetes develops spontaneously in these male rats at ages 8-10 weeks, and is associated with hyperphagia, polyuria, polydipsia, and impaired weight gain, symptoms which parallel the clinical symptoms of diabetes (Phillips M S, et al., 1996, Nat Genet. 13, 18-19). Six week old ZDF rats were injected intraperitoneally with short antisense compound at a dose of 400 nM/kg once a week for twelve weeks. Data are illustrated in Tables 71 and 72.
# [7] = HbA1c status in ZDF rats (Example 16, Table 72); type: in vivo, rat; conditions: for Percentage HbA1c on specific dates, Day 40 / Percentage HbA1c on specific dates, Day 55 / Percentage HbA1c on specific dates, Day 68: 400 nM/kg i.p. once a week for twelve weeks; for Percentage HbA1c on specific dates, Day 40: Day 40, p < 0.001; for Percentage HbA1c on specific dates, Day 55: Day 55, p < 0.001; for Percentage HbA1c on specific dates, Day 68: Day 68, p < 0.001
# Protocol: as §3
# ApoB mRNA [8] = experiment: ApoB mRNA in liver of Balb/c mice, palmitic acid conjugates, single i.p. dose, with ED50 (Example 30, Table 95); type: in vivo, mouse; conditions: for % Inhib: Balb/c mice, about 48 hours after dose, relative to saline-treated controls
# Protocol: 0.4, and 0.16 umol/kg. Each dose group consisted of four animals. A 5-10-5 MOE gapmer was used for a control treatment. Mice were sacrificed approximately 48 hours following the final dose. Liver tissue was collected for RNA isolation, and blood was collected for serum chemistry analyses. ApoB mRNA levels were measured by real-time PCR as described herein. ApoB mRNA levels were normalized to RNA levels as determined by RIBOGREEN, and are presented in Table 95 as percent inhibition relative to ApoB mRNA levels in saline-treated control animals.
# At the 2.5 umol/kg dose, ApoB inhibition by the short antisense compounds was greater than observed with a 5-10-5 MOE gapmer at an equivalent dose. […] Triglycerides were reduced at the 2.5 and […] doses of ISIS 387462 and ISIS 391872.
# mouse SGLT2 mRNA [9] = experiment: Mouse SGLT2 mRNA levels in kidney, additional 1-10-1 and 2-8-2 MOE gapmers, Balb/c mice (Example 15, Table 68); type: in vivo
# Protocol: 1-10-1 and 2-8-2 MOE gapmer short antisense compounds were designed to target different regions of the mouse SGLT2 RNA but have complementarity across species. […] All cytidine residues are 5-methylcytidines.
# The short antisense compounds were analyzed for their effect on mouse SGLT2 mRNA levels in vivo. Data was taken from three experiments in which male 6-week old Balb/c mice were dosed twice per week for three weeks with 0.5, 0.1, or 0.02 umol/kg of either a 1-10-1 or 2-8-2 MOE gapmer given by intraperitoneal injection. Mice were sacrificed 48 hours following last administration and evaluated for SGLT2 levels in kidney. Target levels were determined by RT, real-time PCR as described by other examples herein. PCR results were normalized to an internal ISIS control.
# mouse SGLT2 mRNA [10] = experiment: Mouse SGLT2 mRNA levels in kidney, MOE versus Methyleneoxy BNA gapmers, Balb/c mice (Example 15, Table 69); type: in vivo
# Protocol: The effect of ISIS 379692 1-10-1 MOE gapmer and ISIS 388625 2-8-2 MOE gapmer are compared with the effect of ISIS 392170 1-10-1 Methyleneoxy BNA Gapmer and ISIS 392173 2-8-2 Methyleneoxy BNA Gapmer (see Table 69) on mouse SGLT2 mRNA levels in vivo. Data are taken from three experiments in which male 6-week old Balb/c mice were dosed twice per week for three weeks with 5, 25 and 125 nmol/kg of either the ISIS 379692 1-10-1 MOE gapmer or the ISIS 388625 2-8-2 MOE gapmer given by intraperitoneal injection. Mice were sacrificed 48 hours following last administration and evaluated for SGLT2 mRNA levels in kidney. Target levels were determined by RT, real-time PCR as described by other examples herein. PCR results were normalized to an internal ISIS control. The data are expressed as percent change (“+” indicates an increase, “−” indicates a decrease) relative to saline treated animals and are illustrated in Table 69.
# [11] = Day 10, 400 nM/kg i.p. once a week for twelve weeks
# [12] = Day 40, 400 nM/kg i.p. once a week for twelve weeks
# [13] = Day 55, 400 nM/kg i.p. once a week for twelve weeks
# [14] = Day 66, 400 nM/kg i.p. once a week for twelve weeks
# [15] = compared to PBS and control treated animals
# [16] = 5 nmol/kg i.p. twice per week for three weeks
# [17] = 25 nmol/kg i.p. twice per week for three weeks
# [18] = 125 nmol/kg i.p. twice per week for three weeks
substance,measurement,setting,value
147764 (antisense eG*eT*e[5mC]*e[5mC]*e[5mC]*dT*dG*dA*dA*dG*dA*dT*dG*dT*d[5mC]*eA*eA*eT*eG*e[5mC]) [compound 147764],Free Fatty Acid (FFA),[1],1.29
same,HDL,[1],81.3 mg/dL
same,LDL,[1],10.3 mg/dL
same,Total Cholesterol (CHOL),[1],107 mg/dL
same,Triglyceride (TRIG),[1],167 mg/dL
same,Kidney Full-Length antisense compound tissue concentration,[2],28.6 µM
same,Kidney Total antisense compound tissue concentration,[2],33.5 µM
same,Liver Full-Length antisense compound tissue concentration,[2],22.9 µM
same,Liver Total antisense compound tissue concentration,[2],31.3 µM
same,Kidney Weight,[3],105 % of saline control
same,Liver Weight,[3],102 % of saline control
same,ALT,[4],29.5 IU/L
same,AST,[4],64.0 IU/L
same,ApoB mRNA level,ApoB mRNA [5]; Table 30 (rounded),58 % of saline control
same,% ApoB mRNA Level (relative to saline control),ApoB mRNA [5]; liver,57.7%
388625 (antisense eT*eG*dT*dT*d[5mC]*d[5mC]*dA*dG*d[5mC]*d[5mC]*e[5mC]*eA) [compound 388625],Plasma glucose levels,[6]; [11],435.5 mg/dL
same,Plasma glucose levels,[6]; [12],278.7 mg/dL
same,Plasma glucose levels,[6]; [13],213.8 mg/dL
same,Plasma glucose levels,[6]; [14],325.5 mg/dL
same,"Percentage HbA1c on specific dates, Day 40",[7],6.5%
same,"Percentage HbA1c on specific dates, Day 55",[7],5.8%
same,"Percentage HbA1c on specific dates, Day 68",[7],4.3%
388628 (antisense eT*eA*dG*d[5mC]*d[5mC]*dG*d[5mC]*d[5mC]*d[5mC]*dA*e[5mC]*eA) [compound 388628],Plasma glucose levels,[6]; [11],436.0 mg/dL
same,Plasma glucose levels,[6]; [12],502.0 mg/dL
same,Plasma glucose levels,[6]; [13],411.2 mg/dL
same,Plasma glucose levels,[6]; [14],668.8 mg/dL
same,"Percentage HbA1c on specific dates, Day 40",[7],8.0%
same,"Percentage HbA1c on specific dates, Day 55",[7],9.1%
same,"Percentage HbA1c on specific dates, Day 68",[7],7.8%
391871 (antisense [PALM-G]*eG*dT*dA*dC*dA*dT*dG*dG*dA*dA*dG*eT*e[5mC]) [compound 391871],% Inhib,ApoB mRNA [8]; single i.p. dose 0.16 umol/kg,0%
same,% Inhib,ApoB mRNA [8]; single i.p. dose 0.4 umol/kg,5%
same,% Inhib,ApoB mRNA [8]; single i.p. dose 1.0 umol/kg,18%
391872 (antisense [PALM-G]*lG*dT*dA*dC*dA*dT*dG*dG*dA*dA*dG*lT*l[5mC]) [compound 391872],% Inhib,ApoB mRNA [8]; single i.p. dose 0.16 umol/kg,18%
same,% Inhib,ApoB mRNA [8]; single i.p. dose 0.4 umol/kg,50%
same,% Inhib,ApoB mRNA [8]; single i.p. dose 1.0 umol/kg,92%
ISIS 388626: SGLT2; GGCATGAGCTTC 2-8-2 MOE (antisense eG*eG*d[5mC]*dA*dT*dG*dA*dG*d[5mC]*dT*eT*e[5mC]),Plasma glucose levels,[6]; [11],434.7 mg/dL
same,Plasma glucose levels,[6]; [12],300.5 mg/dL
same,Plasma glucose levels,[6]; [13],219.8 mg/dL
same,Plasma glucose levels,[6]; [14],379.8 mg/dL
same,Plasma glucose levels,[6]; [15],significantly reduced
same,% change in SGLT2 expression relative to saline,mouse SGLT2 mRNA [9]; 0.02 umol/kg i.p. twice per week for three weeks,−45%
same,% change in SGLT2 expression relative to saline,mouse SGLT2 mRNA [9]; 0.1 umol/kg i.p. twice per week for three weeks,−60%
same,% change in SGLT2 expression relative to saline,mouse SGLT2 mRNA [9]; 0.5 umol/kg i.p. twice per week for three weeks,−80%
same,"Percentage HbA1c on specific dates, Day 40",[7],6.6%
same,"Percentage HbA1c on specific dates, Day 55",[7],5.9%
same,"Percentage HbA1c on specific dates, Day 68",[7],4.0%
same,HbA1C,[7]; [15],significantly reduced
ISIS 391871: ApoB; GGTACATGGAAGTC 1-1-10-2 2′-(butylacetomido)-palmitamide/MOE/MOE Unmodified cytosines in gap (antisense [PALM-G]*eG*dT*dA*dC*dA*dT*dG*dG*dA*dA*dG*eT*e[5mC]),estimated ED50,ApoB mRNA [8]; single i.p. injection,13.1 mg/kg
ISIS 392170: SGLT2; 1-10-1 Methyleneoxy BNA Gapmer (antisense lT*dG*dT*dT*d[5mC]*d[5mC]*dA*dG*d[5mC]*d[5mC]*d[5mC]*lA),"SGLT2 mRNA, percent change relative to saline treated animals",mouse SGLT2 mRNA [10]; [16],−23 percent change
same,"SGLT2 mRNA, percent change relative to saline treated animals",mouse SGLT2 mRNA [10]; [17],−54 percent change
same,"SGLT2 mRNA, percent change relative to saline treated animals",mouse SGLT2 mRNA [10]; [18],−69 percent change
ISIS 392173: SGLT2; 2-8-2 Methyleneoxy BNA Gapmer (antisense lT*lG*dT*dT*d[5mC]*d[5mC]*dA*dG*d[5mC]*d[5mC]*l[5mC]*lA),"SGLT2 mRNA, percent change relative to saline treated animals",mouse SGLT2 mRNA [10]; [16],−44 percent change
same,"SGLT2 mRNA, percent change relative to saline treated animals",mouse SGLT2 mRNA [10]; [17],−57 percent change
same,"SGLT2 mRNA, percent change relative to saline treated animals",mouse SGLT2 mRNA [10]; [18],−75 percent change
